Patent publication US20060212961A1, “Rice transposon gene” (priority 2003, published 2006)

How the values were obtained:
pyl-stb seeds = assay: Azacytidine treatment of pyl-stb seeds, appearance of mutable (pyl-v) individuals; format: in vivo, rice; details: for Germination rate (%) / Mutable individual (%) / Individual with mutable or abnormal phenotype / Mutable individual / Normal individual: seeds macerated 24 hrs at 30° C.; for Individual with mutable or abnormal phenotype / Mutable individual / Normal individual: number of individuals
Protocol: pyl-stb seeds were macerated in 0.15, 0.3 or 0.45 mM azacytidine aqueous solution for 24 hrs at 30° C., washed them, left for germination and examined the expression of pyl-v.

indica rice (93-11) = assay: Azacytidine treatment of indica rice (93-11), release of nDart; format: in vivo; details: 93-11 treated with azacytidine; no release under usual growth conditions
Protocol: Furthermore, indica rice (93-11) was treated with azacytidine and confirmed release of nDart.

Structure (SMILES): Nc1ncn([C@@H]2O[C@H](CO)[C@@H](O)[C@H]2O)c(=O)n1 [azaC, 5-azacytidine]
- Frequency of the transposition of nDart (pyl-stb seeds; 0.15, 0.3 or 0.45 mM azacytidine aqueous solution, 24 hrs at 30° C.): increased as the concentration of azacytidine increased
- Germination rate (%) (pyl-stb seeds; azaC 0.15 mM): 99%
- Mutable individual (%) (pyl-stb seeds; azaC 0.15 mM): 60.6%
- Individual with mutable or abnormal phenotype (pyl-stb seeds; azaC 0.15 mM): 17
- Mutable individual (pyl-stb seeds; azaC 0.15 mM): 43
- Normal individual (pyl-stb seeds; azaC 0.15 mM): 39
- Germination rate (%) (pyl-stb seeds; azaC 0.3 mM): 92%
- Mutable individual (%) (pyl-stb seeds; azaC 0.3 mM): 69.6%
- Individual with mutable or abnormal phenotype (pyl-stb seeds; azaC 0.3 mM): 27
- Mutable individual (pyl-stb seeds; azaC 0.3 mM): 37
- Normal individual (pyl-stb seeds; azaC 0.3 mM): 28
- Germination rate (%) (pyl-stb seeds; azaC 0.45 mM): 95%
- Mutable individual (%) (pyl-stb seeds; azaC 0.45 mM): 73.7%
- Individual with mutable or abnormal phenotype (pyl-stb seeds; azaC 0.45 mM): 36
- Mutable individual (pyl-stb seeds; azaC 0.45 mM): 34
- Normal individual (pyl-stb seeds; azaC 0.45 mM): 25
- Change of pyl-stb to a pyl-v mutant (pyl-stb seeds; azacytidine treatment of pyl-stb seeds): able to be changed to a pyl-v mutant
- Release of nDart (indica rice (93-11)): release was confirmed
